The target of assay [1] is T1, Chitinase B (Serratia marcescens) (UniProt P11797).
T1 sequence (whole entry): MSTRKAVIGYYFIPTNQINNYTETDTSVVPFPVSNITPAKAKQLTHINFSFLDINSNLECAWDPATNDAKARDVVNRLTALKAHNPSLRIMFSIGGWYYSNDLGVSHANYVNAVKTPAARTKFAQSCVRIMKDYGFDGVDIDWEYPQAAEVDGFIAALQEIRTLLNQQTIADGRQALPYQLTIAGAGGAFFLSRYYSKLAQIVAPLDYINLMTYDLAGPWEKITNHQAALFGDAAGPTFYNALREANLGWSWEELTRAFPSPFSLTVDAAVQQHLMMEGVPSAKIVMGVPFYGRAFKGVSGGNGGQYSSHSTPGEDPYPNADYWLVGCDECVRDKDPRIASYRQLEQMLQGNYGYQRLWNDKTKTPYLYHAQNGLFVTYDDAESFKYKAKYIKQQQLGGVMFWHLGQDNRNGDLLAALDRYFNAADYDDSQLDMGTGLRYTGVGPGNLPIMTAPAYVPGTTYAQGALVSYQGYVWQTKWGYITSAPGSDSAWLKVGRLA
Nature of the assay: Inhibition of Serratia marcescens chitinase b catalytic domain overexpressed in Escherichia coli BL21(DE3) cells at 1 uM using 4MU-(GlcNAc)2 as substrate after 30 mins by fluorescence based microplate reader analysis.

In assay [2] the target is Chitinase (Ostrinia furnacalis) (UniProt Q4AE59). In words: Inhibition of Ostrinia furnacalis chitinase h catalytic domain overexpressed in Pichia pastoris at 1 uM using 4MU-(GlcNAc)2 as substrate after 30 mins by fluorescence based microplate reader analysis.
Chain of Chitinase (Ostrinia furnacalis) (Q4AE59 as listed by the source): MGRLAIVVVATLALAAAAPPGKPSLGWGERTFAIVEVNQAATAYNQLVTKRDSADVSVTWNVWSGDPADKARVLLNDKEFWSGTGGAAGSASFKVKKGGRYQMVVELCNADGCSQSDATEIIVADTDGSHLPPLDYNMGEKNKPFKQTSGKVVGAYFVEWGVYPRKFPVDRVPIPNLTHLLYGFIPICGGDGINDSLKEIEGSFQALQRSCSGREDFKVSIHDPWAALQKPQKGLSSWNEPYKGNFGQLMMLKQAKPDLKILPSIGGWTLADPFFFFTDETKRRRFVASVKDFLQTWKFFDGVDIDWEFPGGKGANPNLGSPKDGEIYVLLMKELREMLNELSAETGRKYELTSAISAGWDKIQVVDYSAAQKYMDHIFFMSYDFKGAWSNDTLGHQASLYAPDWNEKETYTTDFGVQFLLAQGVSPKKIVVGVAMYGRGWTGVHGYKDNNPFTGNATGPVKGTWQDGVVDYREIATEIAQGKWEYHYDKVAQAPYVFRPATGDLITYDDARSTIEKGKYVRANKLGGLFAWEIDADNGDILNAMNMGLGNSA
Assay [3] concerns the target Acidic mammalian chitinase (Homo sapiens, UniProt Q9BZP6). Nature of the assay: Inhibition of human acidic mammalian chitinase catalytic domain overexpressed in Pichia pastoris at 10 uM using 4MU-(GlcNAc)2 as substrate after 30 mins by fluorescence based microplate reader analysis.
In another assay the target is Chitotriosidase-1 (Homo sapiens, UniProt Q13231). Nature of the assay: Inhibition of human CHIT1 catalytic domain overexpressed in Pichia pastoris at 10 uM using 4MU-(GlcNAc)2 as substrate after 30 mins by fluorescence based microplate reader analysis.
Chain of Chitotriosidase-1 (Q13231 22-466 limits assumed): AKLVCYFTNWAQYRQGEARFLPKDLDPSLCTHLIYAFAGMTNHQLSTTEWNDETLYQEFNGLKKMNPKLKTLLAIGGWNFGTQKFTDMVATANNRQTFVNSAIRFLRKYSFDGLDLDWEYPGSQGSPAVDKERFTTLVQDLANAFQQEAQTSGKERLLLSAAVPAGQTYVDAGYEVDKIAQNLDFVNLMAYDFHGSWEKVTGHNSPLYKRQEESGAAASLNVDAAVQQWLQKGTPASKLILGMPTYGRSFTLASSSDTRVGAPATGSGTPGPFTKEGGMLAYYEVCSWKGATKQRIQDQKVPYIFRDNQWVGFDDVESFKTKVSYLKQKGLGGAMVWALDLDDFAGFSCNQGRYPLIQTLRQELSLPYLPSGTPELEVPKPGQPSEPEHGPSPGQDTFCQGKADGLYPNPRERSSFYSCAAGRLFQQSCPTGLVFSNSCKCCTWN
Assay [4] has as its system Mus musculus. In words: In vivo inhibition of human chitinase in C57BL/6 mouse assesed as reduction in bleomycin-induced chitinase level in BALF at 2 ug/mouse, ip administered for 11 days and measured on day 12 by necropsy analysis. Format: functional.
The target of assay [5] is Chitotriosidase-1 (Mus musculus) (UniProt Q9D7Q1). Nature of the assay: Inhibition of chitinase in mouse BALF at 40 ug using 4-MU-(GlcNAc)2 substrate as substrate after 15 mins relative to control.
Chain of Chitotriosidase-1 (Mus musculus) (Q9D7Q1 22-464 limits assumed): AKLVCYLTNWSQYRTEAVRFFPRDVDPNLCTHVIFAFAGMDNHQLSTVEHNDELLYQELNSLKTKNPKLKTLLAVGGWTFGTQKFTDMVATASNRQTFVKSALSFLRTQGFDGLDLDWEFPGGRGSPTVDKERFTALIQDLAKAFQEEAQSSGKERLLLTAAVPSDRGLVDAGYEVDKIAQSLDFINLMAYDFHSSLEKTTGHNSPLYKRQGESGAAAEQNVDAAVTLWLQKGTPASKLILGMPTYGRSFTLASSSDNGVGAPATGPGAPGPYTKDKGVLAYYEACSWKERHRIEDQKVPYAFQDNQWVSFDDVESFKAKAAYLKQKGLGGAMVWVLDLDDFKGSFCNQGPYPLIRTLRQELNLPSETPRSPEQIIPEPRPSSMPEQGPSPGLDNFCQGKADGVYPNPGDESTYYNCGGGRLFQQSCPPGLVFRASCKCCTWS
Assay [6] has the same target. In words: Inhibition of chitinase in mouse BALF at 1 ug using 4-MU-(GlcNAc)2 substrate as substrate after 15 mins relative to control.
Assay [7] deals with Mus musculus. In words: Antifibrotic activity in bleomycin-induced C57BL/6 mouse model of pulmonary fibrosis assessed as effect on Chit1 expression at 2 ug/mouse, ip administered for 11 days and measured on day 12 post treatment by RT-qPCR analysis. Format: functional, organism-based. A general note: Real-time PCR tracks product formation cycle by cycle.
The test system of assay [8] is Mus musculus. In words: Antifibrotic activity in bleomycin-induced C57BL/6 mouse model of pulmonary fibrosis assessed as effect on Areg expression at 2 ug/mouse, ip administered for 11 days and measured on day 12 post treatment by RT-qPCR analysis. Format: functional, organism-based.
In assay [9] the test system is Mus musculus. Nature of the assay: Antifibrotic activity in bleomycin-induced C57BL/6 mouse model of pulmonary fibrosis assessed as effect on TGFbeta expression at 2 ug/mouse, ip administered for 11 days and measured on day 12 post treatment by RT-qPCR analysis. It counts as functional, organism-based.
The test system of assay [10] is Mus musculus. In words: Antifibrotic activity in bleomycin-induced C57BL/6 mouse model of pulmonary fibrosis assessed as effect on IL33 expression at 2 ug/mouse, ip administered for 11 days and measured on day 12 post treatment by RT-qPCR analysis. It counts as functional, organism-based.
Assay [11] deals with Mus musculus. In words: Antifibrotic activity in bleomycin-induced C57BL/6 mouse model of pulmonary fibrosis assessed as effect on IL5 expression at 2 ug/mouse, ip administered for 11 days and measured on day 12 post treatment by RT-qPCR analysis. Format: functional, organism-based.
Assay [12] has as its system Mus musculus. In words: Antifibrotic activity in bleomycin-induced C57BL/6 mouse model of pulmonary fibrosis assessed as effect on IL13 expression at 2 ug/mouse, ip administered for 11 days and measured on day 12 post treatment by RT-qPCR analysis. Format: functional, organism-based.
For assay [13], the system named is Mus musculus. In words: Antifibrotic activity in bleomycin-induced C57BL/6 mouse model of pulmonary fibrosis assessed as increase in number of monocytes in lungs at 2 ug/mouse, ip administered for 11 days and measured on day 12 post treatment by flow cytometric analysis. Format: functional, organism-based. (In general: Flow cytometry measures light scatter and fluorescence of single cells or particles in a stream.)

For assay [14], the system named is Mus musculus. In words: Antifibrotic activity in bleomycin-induced C57BL/6 mouse model of pulmonary fibrosis assessed as increase in number of PDL2+ alveolar macrophages in lungs at 2 ug/mouse, ip administered for 11 days and measured on day 12 post treatment by flow cytometric analysis. It counts as functional, organism-based.
In assay [15] the test system is Mus musculus. Nature of the assay: Antifibrotic activity in bleomycin-induced C57BL/6 mouse model of pulmonary fibrosis assessed as increase in number of interstitial macrophages in lungs at 2 ug/mouse, ip administered for 11 days and measured on day 12 post treatment by flow cytometric analysis. It counts as functional, organism-based.
The target in assay [16] is 3',5'-cyclic-AMP phosphodiesterase 4D (Homo sapiens) (UniProt Q08499). In words: Inhibition of PDE4D2 (unknown origin) at 10 uM relative to control.
Chain of 3',5'-cyclic-AMP phosphodiesterase 4D (Homo sapiens) (Q08499 whole entry): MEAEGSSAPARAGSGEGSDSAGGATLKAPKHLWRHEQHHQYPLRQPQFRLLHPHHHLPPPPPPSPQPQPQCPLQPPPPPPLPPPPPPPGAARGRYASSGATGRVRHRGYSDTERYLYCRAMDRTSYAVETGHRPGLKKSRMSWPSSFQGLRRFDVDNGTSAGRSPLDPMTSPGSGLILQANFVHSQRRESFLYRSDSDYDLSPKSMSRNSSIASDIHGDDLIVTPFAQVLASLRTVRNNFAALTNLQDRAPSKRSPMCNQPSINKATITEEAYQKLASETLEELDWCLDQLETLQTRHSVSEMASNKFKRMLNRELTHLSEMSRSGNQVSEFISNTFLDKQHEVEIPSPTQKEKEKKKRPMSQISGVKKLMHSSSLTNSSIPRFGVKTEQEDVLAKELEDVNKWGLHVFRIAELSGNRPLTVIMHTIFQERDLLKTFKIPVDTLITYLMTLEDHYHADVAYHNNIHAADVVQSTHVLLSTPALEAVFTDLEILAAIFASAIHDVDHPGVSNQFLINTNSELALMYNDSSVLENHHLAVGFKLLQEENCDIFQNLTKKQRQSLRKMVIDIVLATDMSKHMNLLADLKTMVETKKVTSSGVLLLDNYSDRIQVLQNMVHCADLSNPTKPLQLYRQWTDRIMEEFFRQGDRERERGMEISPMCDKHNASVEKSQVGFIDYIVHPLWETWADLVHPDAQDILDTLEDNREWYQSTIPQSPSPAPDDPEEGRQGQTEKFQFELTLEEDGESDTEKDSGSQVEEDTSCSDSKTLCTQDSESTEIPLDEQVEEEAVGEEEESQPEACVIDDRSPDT

Each structure is given as a SMILES string. Activity calls are given as the source filed them. The rule behind the calls is not given here.

Chain of Acidic mammalian chitinase (Q9BZP6 22-476 limits assumed): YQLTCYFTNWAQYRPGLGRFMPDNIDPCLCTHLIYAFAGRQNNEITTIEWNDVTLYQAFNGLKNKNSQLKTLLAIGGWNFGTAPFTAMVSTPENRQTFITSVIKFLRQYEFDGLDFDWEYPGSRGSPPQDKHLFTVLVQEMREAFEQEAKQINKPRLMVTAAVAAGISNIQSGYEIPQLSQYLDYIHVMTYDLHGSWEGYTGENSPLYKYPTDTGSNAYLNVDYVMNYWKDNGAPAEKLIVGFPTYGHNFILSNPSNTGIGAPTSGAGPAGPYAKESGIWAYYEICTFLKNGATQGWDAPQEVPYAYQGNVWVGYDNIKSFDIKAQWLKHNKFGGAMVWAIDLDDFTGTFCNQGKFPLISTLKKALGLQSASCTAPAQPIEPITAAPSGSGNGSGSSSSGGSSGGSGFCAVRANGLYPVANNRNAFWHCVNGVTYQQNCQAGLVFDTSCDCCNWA

As usually defined, the inhibition is how much of the control response was suppressed. In the case of `CC(NC(=O)c1cc2c(=O)n3ccccc3nc2n(Cc2ccccc2)c1=N)c1ccccc1` (configuration not stated), the inhibition result (in [1]; in [2]; in [3]; on Chitotriosidase-1) was “Active” each time. In the assay with Mus musculus [4], the “inhibition (INH)” value came out at 100%. The inhibition was found to be 55% in [5], 35% in [6] and 87.8% in assay [16]. The result with Mus musculus [7], in the assay on Mus musculus [8], in the assay with Mus musculus [9], in the assay with Mus musculus [10] and in the assay with Mus musculus [11] was inactive. Besides, the outcome in the assay with Mus musculus [12], in the assay on Mus musculus [13], in the assay with Mus musculus [14] and in the assay with Mus musculus [15] was Active.
